Read-outs that look alike come from different tables or passages of the source.
Tests used:
SKOV3 cells [1] = test: In vitro cytotoxicity study; format: cell-based, human; conditions: 0.1 μg/mL over a period of 7 days, FIG. 5
Description: RPMI 1640 with 20% fetal bovine serum (FBS) was used for culturing A2780 and OVCAR3, and McCoy's 5a cell growth media with 10% FBS was used for SKOV3 propagation. The cells were seeded in 96-well plates at 10^4 cells/well. […] The percentage cell viability was calculated as a percentage of the untreated group at each time point.

[2] = tested on: SKOV3 luciferase-positive cells; test: Treatment efficacy study; format: in vivo, nu/nu mice
Description: The nu/nu mice were inoculated with tumor cells on Day 0 and treatment was started on Day 14. […] The devices were sterilized with ethylene oxide prior to implantation. All animal care guidelines as listed in the animal protocol were followed. The animals were imaged 2 times a week, similar to the tumor induction study. The animals in the toxicity study were sacrificed on day 56 and their organs (kidney, liver, spleen, intestines and bone) were removed immediately upon euthanasia to be fixed in 10% formalin overnight.

SKOV3 cells [3] = conditions: for 2 hours; Royer et al.; used as positive control; cited from earlier work
ovarian cancer = conditions: cited from earlier work
[4] = DrugBank, DB01229; cited from earlier work
[5] = tested on: OVCAR-3 ovarian tumor cell line; conditions: cited from earlier work

Compound	killing of tumor cells at 0.1 μg/mL (SKOV3 cells [1])	tumor size ([2]; IP bolus injection (10 mg/kg), 1 dose per week)	tumor mass ([2]; device or IP bolus 5 mg/kg 1x/wk from Day 14, vs untreated, FIG. 8)	critical condition to kill ovarian tumor cells (concentration) (SKOV3 cells [3]) [µg/mL]	subjects who completed all cycles of therapy (ovarian cancer; IP therapy) [%]	overall survival (ovarian cancer; IP treatment, p=0.03) [months]	subjects who completed all cycles of therapy (ovarian cancer; IV therapy) [%]	overall survival (ovarian cancer; IV treatment) [months]	log P [4]	median survival ([5]; 10 mg/kg dose) [days]	median survival ([5]; 40 mg/kg)
N.N.[Cl][Pt][Cl] [cisplatin]	too low to kill tumor cells	remained relatively small	significant tumor mass reduction	10	42	65.6	83	49.7			
CC(=O)O[C@H]1C(=O)[C@@]2(C)[C@H]([C@H](OC(=O)c3ccccc3)[C@]3(O)C[C@H](OC(=O)[C@H](O)[C@@H](NC(=O)c4ccccc4)c4ccccc4)C(C)=C1C3(C)C)[C@]1(OC(C)=O)CO[C@@H]1C[C@@H]2O [paclitaxel]									about 3.5	60	about 70 days
